Peptide text beside a SMILES is read from it. * marks the point of attachment. Cbz = O=C(OCc1ccccc1)*
Target: T1, human tau (hTau) (Homo sapiens, UniProt P10636)
T1 construct: expressed in transfected cells
Experiment: Tau clearance in HEK293-hTau cells by Western blotting
Type: cell-based
Conditions: HEK293-hTau cells; 10 μM MG132 with 20 μM C004019; 24 h
Description: SH-SY5Y human neuroblastoma cells were cultured in 90% DME/F-12 medium (HyClone, SH30023.01) with 10% fetal bovine serum (FBS) (Biological Industries, 04-001-1ACS) and penicillin (100 U/mL)/ streptomycin (100 μg/mL) in a 37 °C incubator with humidified atmosphere of 5% CO2. Human embryonic kidney 293 cells (HEK293) or HEK293 with stable expression of wild-type full-length human tau (termed as HEK293-hTau) were cultured in 90% DMEM/High Glucose medium (HyClone, SH30022.01) containing 10% FBS and 200 μg/mL G418 (ThermoFisher Scientific, 10131027), in a humidified atmosphere of 5% CO2 at 37 °C. Neofect (DNA transfection reagent, TF20121201) was used for plasmids transfection. The cells were placed onto 6-well or 12-well plates. Plasmids (EGFP-hTau or 3xFlag-hTau or the vector), neofect and Opti-MEM medium (Gibco, 31985-070) were made into a mixture in a ratio of 1 μg: 1 μL : 100 μL and then added into each well of the plate. To inhibit proteasome activity, HEK293-hTau cells were cultured with DMEM/High medium containing 20 μM C004019 with or without 10 μM MG132, or the same volume of vehicle (DMSO) for 24 h at 37 °C. To induce tau hyperphosphorylation, SH-SY5Y cells were cultured with DME/F-12 medium containing 10 μM C004019 with or without 1 μM GFX and 1 μM WO for 24 h at 37 °C.
The cells or hippocampal/cortex tissues were homogenized for ~ 30 min on ice in buffer [50 mM Tris·HCl pH 7.4-7.5, 100 mM NaCl, 1% (vol/vol) Triton X-100, 5 mM EDTA, 1:100 PMSF, 1:1,000 protease inhibitor cocktail containing 4-(2-Aminoethyl)-benzenesulfonyl fluoride hydrochloride, aprotinin, bestatin, leupeptin, E-64, and pepstatin A stored at 4 °C], and then centrifuged at 12,000 × g at 4 °C for 20 min. The supernatant was collected and the protein levels were analyzed using bicinchoninic acid (BCA, KF016, Sigma-Aldrich) by following the manufacturer's instruction (served as soluble protein). The pellet was further incubated with 8% (wt/vol) SDS buffer at 4 °C and then treated by ultrasonic wave to reach a complete resuspension. […] Immunoreactive bands were quantitatively analyzed by Image J2x software.

T1 sequence (P10636 1-441 isoform P10636-8): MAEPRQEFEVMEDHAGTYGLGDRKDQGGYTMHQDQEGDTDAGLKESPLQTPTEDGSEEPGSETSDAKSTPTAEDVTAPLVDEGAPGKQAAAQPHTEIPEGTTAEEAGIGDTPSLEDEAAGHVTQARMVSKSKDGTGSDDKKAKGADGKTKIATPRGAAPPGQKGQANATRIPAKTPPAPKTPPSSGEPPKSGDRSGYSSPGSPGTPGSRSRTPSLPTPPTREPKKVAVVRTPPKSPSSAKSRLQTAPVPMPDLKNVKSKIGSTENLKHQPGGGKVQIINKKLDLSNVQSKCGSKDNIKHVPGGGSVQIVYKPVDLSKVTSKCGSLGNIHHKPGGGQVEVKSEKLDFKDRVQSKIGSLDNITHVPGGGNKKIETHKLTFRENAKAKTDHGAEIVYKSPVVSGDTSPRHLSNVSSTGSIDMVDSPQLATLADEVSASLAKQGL

CC(C)C[C@@H](C=O)NC(=O)[C@H](CC(C)C)NC(=O)[C@H](CC(C)C)NC(=O)OCc1ccccc1 [MG132, reference compound] (Cbz-Leu-Leu-Leu-aldehyde)
effect on C004019-induced clearance of tau (proteasome inhibition): abolished

Source: paper PMC8039949, “A novel small-molecule PROTAC selectively promotes tau clearance to improve cognitive functions in Alzheimer-like models” (Theranostics, 2021)
